From patent EP2386300A1, “Use of dronedarone for the preparation of a medicament for use in the prevention of cardiovascular hospitalization or of mortality in patients having a first recurrence of atrial fibrillation or atrial flutter” (SANOFI, priority 2010, dated 2011)
Counter-ions that a name gives are not always drawn.

Test system: patients having a history of atrial fibrillation or atrial flutter
Assay: Prospective, multinational, multicentre, double-blind, placebo-controlled clinical study (ATHENA); analysis restarting the clock at first AF/AFL recurrence
Format: in vivo
Method: More particularly, the effects of dronedarone compared with placebo on cardiovascular (CV) end points were evaluated by restarting the clock at the time of first atrial fibrillation or atrial flutter recurrence detected in a scheduled ECG or requiring cardioversion.
The patients had to have a history of atrial fibrillation or flutter and/or could be in normal sinus rhythm or in atrial fibrillation or flutter at inclusion.
The patient recruitment was carried out by taking into account the following inclusion criteria:
• 1) One of the following risk factors had to be present: • age equal to or greater than 70 years, • hypertension (taking antihypertensives of at least two different classes), • diabetes, • history of cerebral stroke (transient ischemic event or completed cerebral stroke) or of systemic embolism, • left atrial diameter greater than or equal to 50 mm measured by echocardiography, • left ventricular ejection fraction less than 40%, measured by two-dimensional echography; or • age equal to or above 70, or even above 75, possibly combined with at least one of the risk factors below: • o hypertension (taking antihypertensives of at least two different classes), • o diabetes, • o history of cerebral stroke (transient ischemic event or completed cerebral stroke) or of systemic embolism, • o left atrial diameter greater than or equal to 50 mm measured by echocardiography, • o left ventricular ejection fraction less than 40%, measured by two-dimensional echography; • 2) availability of an electrocardiogram carried out during the past 6 months in order to document the presence or the history of atrial fibrillation or flutter; • 3) availability of an electrocardiogram carried out during the past 6 months in order to document the presence or absence of normal sinus rhythm.
• Patients in permanent atrial fibrillation • Patients in unstable hemodynamic condition such as acute pulmonary edema within 12 hours prior to start of study medication; cardiogenic shock; treatment with IV pressor agents; patients on respirator; congestive heart failure of stage NYHA IV within the last 4 weeks; uncorrected, hemodynamically significant primary obstructive valvular disease; hemodynamically significant obstructive cardomyopathy; a cardiac operation or revascularization procedure within 4 weeks preceding randomization • Planned major non-cardiac or cardiac surgery or procedures including surgery for valvular heart disease, coronary artery bypass graft (CABG), percutaneous coronary intervention (PCI), or on urgent cardiac transplantation list • Acute myocarditis or constrictive pericarditis • Bradycardia < 50 bpm and/or PR-interval ≥ 0.28 sec on the last 12-lead ECG. • Significant sinus node disease (documented pause of 3 seconds or more) or 2nd or 3rd degree atrioventricular block (AV-block) unless treated with a pacemaker.
• Plasma potassium < 3.5 mmol/I (as anti-arrhythmic drugs can be arrhythmogenic in patients with hypokalemia, this must be corrected prior to randomization. • A calculated GFR at baseline < 10 ml/min using the Cockroft Gault formula (GFR [ml/min] = (140 - AGE [years] * WEIGHT [kilograms] * CONSTANT / CREATININE [µmol/L], where CONSTANT is 1 for men and 0.85 for women )^i
Treatment was initiated using tablets containing either the placebo or an amount of dronedarone hydrochloride corresponding to 400 mg of dronedarone at a rate of twice a day with the morning and evening meal and more specifically at a rate of one tablet in the morning during or shortly after breakfast and one tablet in the evening during or shortly after dinner.
The anticipated duration of the treatment was variable according to the time at which each patient was included in the study, and could range from a minimum of 12 months for the last patient included up to a maximum corresponding to the entire duration of the study (12 months + duration of inclusion), i.e. approximately 30 months for the first patients included.

[1] = 1 - relative risk, versus placebo, after first AF/AFL recurrence

SMILES: CCCCc1oc2ccc(NS(C)(=O)=O)cc2c1C(=O)c1ccc(OCCCN(CCCC)CCCC)cc1 [dronedarone hydrochloride]
- reduction in cardiovascular hospitalizations [1]: 23%
- reduction in cardiovascular hospitalizations or deaths [1]: 24%
- reduction in cardiovascular mortality [1]: 47%
- reduction of death [1]: 44%
- cardiovascular deaths (673 treated patients with a first AF/AFL recurrence, placebo 35): 15 cardiovascular deaths
- deaths (mortality from any cause) (673 treated patients with a first AF/AFL recurrence, placebo 51 deaths): 23 deaths
- events, cardiovascular hospitalizations (673 treated patients with a first AF/AFL recurrence, placebo 288 events): 195 events
- events, cardiovascular hospitalizations or mortality (principal judgement criterion) (673 treated patients with a first AF/AFL recurrence, placebo 306 events): 205 events
- relative risk, cardiovascular hospitalizations or deaths (versus placebo, Cox model, after first AF/AFL recurrence, p = 0.0025): 0.76
- relative risk, cardiovascular hospitalizations (versus placebo, Cox model, after first AF/AFL recurrence, p = 0.0048): 0.77
- relative risk, death from any cause (versus placebo, Cox model, after first AF/AFL recurrence, p = 0.018): 0.56
- relative risk, cardiovascular mortality (versus placebo, Cox model, after first AF/AFL recurrence, p = 0.0342): 0.53

SMILES: CCCCc1oc2ccc(NS(C)(=O)=O)cc2c1C(=O)c1ccc(OCCCN(CCCC)CCCC)cc1 [dronedarone, 2-n-Butyl-3-[4-(3-di-n-butylaminopropoxy)benzoyl]-5-methylsulphonamidobenzofuran]
- primary composite end point occurred in patients (after a first AF recurrence, CV hospitalization or all-cause mortality, placebo 306): 205 patients
- primary composite end point occurred in patients (%) (after a first AF recurrence, placebo 38.6%): 30.5%
- patients hospitalized for worsening heart failure (including pulmonary edema or dyspnea of cardiac origin) (after first AF/AFL recurrence, placebo 5.0%): 3.6%
- patients hospitalized for AF (after first AF/AFL recurrence, placebo 21.2%): 15.8%
- total time spent in hospital (all patients with a first AF/AFL recurrence, placebo 1789 nights, P < 0.01): 1273 nights
- percentage of hospitalization time spent in intensive care units (compared with the placebo group, P = 0.01, Figure 3): lower
- first AF recurrence (percentage of patients with a first AF recurrence, placebo 34.1%): 29.3%
